Data on 26 compounds can be found in ChEMBL document CHEMBL1146704, “(2-amino-phenyl)-amides of omega-substituted alkanoic acids as new histone deacetylase inhibitors” (Bioorg Med Chem Lett, 2004).

Active and inactive are the calls of the source. No cut-off for these calls is given here. Some results are limits rather than exact numbers.

For one assay, the system named is HCT-116. In words: In vitro antiproliferative activity against human cancer cell line HCT116 using MTT assay. Format: functional, cell-based.
For a further assay, the target named is Histone deacetylase. The assay is described as follows: Effect on induced hyperacetylation of histones in whole cells. Format: functional, cell-based, Homo sapiens.
The next assay concerns the target Histone deacetylase 1 (Homo sapiens, UniProt Q13547).
For the next assay, the system named is DU-145. In words: In vivo inhibitory activity against human DU145 prostate tumor; Active. The note with it: Prostate gland.
A short description of assay [1]: Compound was tested for tumor growth inhibition relative to control. The assay is classed as functional.
For a further assay, the system named is COLO 205. In words: In vivo inhibitory activity against human COLO 205 tumor; Active.
A further assay relates to A549. The assay is described as follows: In vivo inhibitory activity against human A549 non-small cell lung tumor; Active.
The test system of another assay is PANC-1. The assay is described as follows: […] inhibitory activity against human PANC-1 pancreatic tumor; Active. The assay is classed as functional.
The subject of a further assay is SW48. In words: In vivo inhibitory activity against human SW48 colon tumor; Active.

Chain of Histone deacetylase 1 (Q13547 whole entry): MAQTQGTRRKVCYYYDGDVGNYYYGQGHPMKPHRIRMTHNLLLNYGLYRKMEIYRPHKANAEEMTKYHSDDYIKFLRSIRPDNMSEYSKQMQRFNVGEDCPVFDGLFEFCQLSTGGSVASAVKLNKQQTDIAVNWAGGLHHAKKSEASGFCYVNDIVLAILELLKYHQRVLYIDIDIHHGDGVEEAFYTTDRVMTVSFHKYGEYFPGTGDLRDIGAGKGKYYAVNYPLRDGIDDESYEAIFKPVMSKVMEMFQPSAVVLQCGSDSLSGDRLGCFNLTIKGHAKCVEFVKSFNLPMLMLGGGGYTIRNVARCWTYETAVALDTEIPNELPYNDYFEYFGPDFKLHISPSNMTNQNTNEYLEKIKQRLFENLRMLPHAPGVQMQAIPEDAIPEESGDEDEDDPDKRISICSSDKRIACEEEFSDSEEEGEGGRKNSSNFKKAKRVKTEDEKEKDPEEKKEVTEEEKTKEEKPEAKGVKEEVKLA
Description for Histone deacetylase 1: Ability to inhibit recombinant human histone deacetylase 1 (HDAC-1).

For `Nc1ccccc1NC(=O)CCCCCN1C(=O)c2ccccc2C1=O`, the IC50 in the assay with HCT-116 was determined as 24 µM; against Histone deacetylase 1 it was 2 µM. In addition, the 50% effective concentration (EC50) on Histone deacetylase was 5 µM.
Take `Nc1ccccc1NC(=O)CCCCCCC(=O)c1ccc2ccccc2c1`: the figures for the concentration for half-maximal inhibition (IC50) with HCT-116 and against Histone deacetylase 1 were 9 µM and 2 µM, respectively. The compound further registered an EC50 at Histone deacetylase of 25 µM.
Take `Nc1ccccc1NC(=O)CCCCCCC(=O)c1ccc(-c2ccccc2)cc1`: the result in the assay on DU-145, in the assay on COLO 205, with A549, with PANC-1 and in the assay on SW48 was Active. Further, in [1], the TGI is 53%. The half-maximal inhibitory concentration (IC50) in the assay on HCT-116 stood at 7 µM; at Histone deacetylase 1, 2 µM. The EC50 at Histone deacetylase stood at 10 µM.
Take `Nc1ccccc1NC(=O)CCCCCCC(=O)c1ccc(-c2ccccc2)nc1`: the result in the assay on DU-145, in the assay on COLO 205, with A549, in the assay with PANC-1 and in the assay with SW48 was Active. The results for the IC50 in the assay with HCT-116 and against Histone deacetylase 1 were 5 µM and 3 µM, respectively. The same compound returned an EC50 at Histone deacetylase of 5 µM.
For the compound `Nc1ccccc1NC(=O)CCCCCN1Cc2ccccc2C1=O`, the half-inhibitory concentration (IC50) in the assay with HCT-116 is 15 µM. This compound also came in with an EC50 on Histone deacetylase of 99 µM.
Turning to `Nc1ccccc1NC(=O)CCCCCN1C(=O)c2cccc3cc(O)cc(c23)C1=O`, the result in the assay with DU-145, with COLO 205, in the assay with A549, in the assay on PANC-1 and with SW48 was Active. For the same compound, in assay [1], the inhibition of tumour growth (TGI) worked out at 28%. This compound displayed an IC50 with HCT-116 of 0.9 µM.
Turning to `Nc1ccccc1NC(=O)CCCCCCC(=O)c1cccc(-c2ccccc2)c1`, the IC50 with HCT-116 was determined as 12 µM; at Histone deacetylase 1, 1 µM. This compound also returned an EC50 at Histone deacetylase of 25 µM.
In the case of `Nc1ccccc1NC(=O)CCCCCN1C(=O)c2ccc(O)cc2C1=O`, the half-inhibitory concentration (IC50) in the assay with HCT-116 was determined as 11 µM. The EC50 on Histone deacetylase was 10 µM.
For the compound `Nc1ccccc1NC(=O)CCCCCn1nnc2ccccc2c1=O`, the values for the IC50 with HCT-116 and against Histone deacetylase 1 were 10 µM and 8 µM, respectively. The compound further returned an EC50 at Histone deacetylase of 10 µM.
The compound `Nc1ccccc1NC(=O)CCCCCn1cnc2ccccc2c1=O` registered an IC50 in the assay with HCT-116 of 10 µM.
Consider `Nc1ccccc1NC(=O)CCCCCN1C(=O)c2cccc3c(CN4CCCCC4)c(O)cc(c23)C1=O`, for which, in the assay on HCT-116, inhibition was half-maximal at 1 µM (IC50). The same compound gave a concentration for a half-maximal effect (EC50) on Histone deacetylase of 1 µM.
`Cc1ccc2c(c1)C(=O)N(CCCCCC(=O)Nc1ccccc1N)C2=O` showed a half-maximal inhibitory concentration (IC50) with HCT-116 of 6 µM. Besides, the EC50 at Histone deacetylase was 3 µM.
As for `Nc1ccccc1NC(=O)CCCCCN1C(=O)c2cccc3cccc(c23)C1=O`, the result with DU-145, in the assay on COLO 205, in the assay with A549, in the assay on PANC-1 and with SW48 was Active. Moreover, the half-inhibitory concentration (IC50) in the assay with HCT-116 was 2 µM; at Histone deacetylase 1, 3 µM. Also, on Histone deacetylase, the concentration for a half-maximal effect (EC50) came out at 3 µM.
For `Nc1ccccc1NC(=O)CCCCCCC(=O)c1ccc(-c2cccnc2)cc1`, the results for the IC50 in the assay on HCT-116 and against Histone deacetylase 1 were 19 µM and 10 µM, respectively. In addition, at Histone deacetylase, the EC50 was determined as 20 µM.
For the compound `COc1ccc(-c2ccc(C(=O)CCCCCCC(=O)Nc3ccccc3N)cc2)cc1OC`, the IC50 in the assay on HCT-116 and at Histone deacetylase 1 was 4 µM in each case. This compound came in with a 50% effective concentration (EC50) at Histone deacetylase of 3 µM.
`Nc1ccccc1NC(=O)CCCCCN1C(=O)c2cccc3c(CN4CCOCC4)c(O)cc(c23)C1=O`: the outcome with DU-145, in the assay on COLO 205, with A549, in the assay on PANC-1 and in the assay on SW48 was Active. In addition, the results for the concentration for half-maximal inhibition (IC50) in the assay with HCT-116 and on Histone deacetylase 1 were 1 µM and 0.5 µM, respectively. The compound further registered an EC50 on Histone deacetylase of 2 µM.
In turn, `Nc1ccccc1NC(=O)CCCCCN1C(=O)c2cccc3c(Br)ccc(c23)C1=O` had an IC50 with HCT-116 of 6 µM. In addition, the half-maximal effective concentration (EC50) on Histone deacetylase turned out to be 10 µM.
Consider `Cn1c(=O)n(CCCCCC(=O)Nc2ccccc2N)c(=O)c2ccccc21`, for which the half-inhibitory concentration (IC50) in the assay on HCT-116 was determined as 5 µM; on Histone deacetylase 1, 4 µM.
On to `Nc1ccccc1NC(=O)CCCCCCC(=O)c1ccc(Br)cc1`, for which the IC50 with HCT-116 worked out at 20 µM; at Histone deacetylase 1, 6 µM. At Histone deacetylase, the EC50 was determined as 15 µM.
The corresponding values for `Nc1ccccc1NC(=O)CCCCCn1c(=O)[nH]c2ccccc2c1=O` are 5 µM, 4 µM and 10 µM.
In the case of `Nc1ccccc1NC(=O)c1ccc(CNC(=O)OCc2cccnc2)cc1` [ENTINOSTAT], the IC50 with HCT-116 came out at 0.5 µM.
Turning to `Nc1ccccc1NC(=O)CCCCCCC(=O)c1ccccc1`, the IC50 with HCT-116 was > 25 µM; against Histone deacetylase 1, 9 µM. Moreover, at Histone deacetylase, the EC50 was 25 µM.
Regarding `Nc1ccccc1NC(=O)CCCCCN1C(=O)c2cc(O)c(CN3CCCCC3)cc2C1=O`, in the assay on HCT-116, the IC50 amounted to 31 µM.
On to `Nc1ccccc1NC(=O)CCCCCN1C(=O)c2cc(O)c(CN3CCOCC3)cc2C1=O`, for which the IC50 in the assay on HCT-116 came to 12 µM; on Histone deacetylase 1 it was 4 µM.
As for `Nc1ccccc1NC(=O)CCCCCN1C(=O)c2cccnc2C1=O`, in the assay with HCT-116, the IC50 was > 47 µM. For the same compound, at Histone deacetylase, the EC50 was > 25 µM.
As for `COc1ccc(C(=O)CCCCCCC(=O)Nc2ccccc2N)cc1`, the half-maximal inhibitory concentration (IC50) in the assay with HCT-116 stood at 21 µM; at Histone deacetylase 1, 5 µM. The compound further showed a 50% effective concentration (EC50) on Histone deacetylase of 5 µM.
